Reference: patent US8765748B2, “Indazolyl, benzimidazolyl, benzotriazolyl substituted indolinone derivatives as kinase inhibitors useful in the treatment of cancer” (University Health Network, priority 2007, dated 2014)
Read-outs that look alike come from different tables or passages of the source.

Experiments:
human PLK4 = molecular target: T1, human PLK4 (Homo sapiens, UniProt O00444); test: PLK4 Inhibition Assay (indirect ELISA); assay type: biochemical
T1 construct: amino terminal GST fusion of residues 1-391 of human PLK4; made in house; host or cells: E. coli
T1 sequence (O00444 1-391): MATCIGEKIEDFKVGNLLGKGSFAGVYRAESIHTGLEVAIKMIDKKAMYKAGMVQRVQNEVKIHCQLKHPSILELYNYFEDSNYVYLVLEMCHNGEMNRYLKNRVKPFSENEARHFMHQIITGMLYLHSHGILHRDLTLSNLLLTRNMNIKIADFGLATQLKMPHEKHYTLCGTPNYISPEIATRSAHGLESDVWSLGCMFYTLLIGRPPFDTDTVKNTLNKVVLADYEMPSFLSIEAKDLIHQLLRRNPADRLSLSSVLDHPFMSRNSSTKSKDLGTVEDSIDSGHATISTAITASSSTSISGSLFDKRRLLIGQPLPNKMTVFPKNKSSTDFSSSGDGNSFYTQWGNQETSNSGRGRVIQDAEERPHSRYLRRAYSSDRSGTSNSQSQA
Method in brief: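 Dephosphorylated (lambda phosphatase) GST-PLK4 activity read by indirect ELISA. Compounds were pre-incubated with enzyme for 15 minutes before ATP was added. IC50 came from a non-linear 4-point logistic fit.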

PLK1 = molecular target: T2, PLK1 (Homo sapiens, UniProt P53350); test: PLK1 Inhibition Assay (Z-Lyte); assay type: biochemical; settings: for IC50: 25 μM ATP, 8 nM PLK1, read-out: PLK1 IC50 Ranges; for inhibition at 10 µM: 10 μM compound, read-out: PLK1 relative inhibition percentage at a dose of 10 μM
T2 construct: purchased Invitrogen PV3501
T2 sequence (P53350 whole entry): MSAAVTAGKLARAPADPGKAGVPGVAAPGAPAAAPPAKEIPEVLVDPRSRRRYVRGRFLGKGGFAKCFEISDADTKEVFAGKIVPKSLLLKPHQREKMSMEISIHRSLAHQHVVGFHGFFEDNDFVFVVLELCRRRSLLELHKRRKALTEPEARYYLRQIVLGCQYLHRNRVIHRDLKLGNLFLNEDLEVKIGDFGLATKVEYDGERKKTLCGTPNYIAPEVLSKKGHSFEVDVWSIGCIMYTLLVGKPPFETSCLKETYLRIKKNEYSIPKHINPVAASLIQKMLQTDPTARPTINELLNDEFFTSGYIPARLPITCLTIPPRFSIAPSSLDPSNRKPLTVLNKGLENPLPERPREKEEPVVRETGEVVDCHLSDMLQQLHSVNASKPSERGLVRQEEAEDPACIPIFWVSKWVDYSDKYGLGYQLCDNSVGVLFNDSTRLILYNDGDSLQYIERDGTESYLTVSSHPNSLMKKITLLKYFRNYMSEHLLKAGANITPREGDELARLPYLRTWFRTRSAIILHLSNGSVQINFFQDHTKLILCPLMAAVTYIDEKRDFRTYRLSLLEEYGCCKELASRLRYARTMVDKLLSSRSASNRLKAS
Experimental: PLK1 inhibition was determined using the Z-Lyte assay kit from Invitrogen (cat #PV3802). […] The % inhibition values were determined according to the manufacturer's directions and IC50 values were obtained using a non-linear 4 point logistic curve fit (XLfit4, IDBS)

[1] = system: MDA-MB-468 basal breast cancer cell line; test: Cell growth inhibition, Sulforhodamine B assay (SRB); assay type: cell-based; settings: Homo sapiens, MDA-MB-468, 120 h; 5 days culture, SRB; read-out: Cell Line GI50 Range, MDA-MB-468
Experimental: (§1) Breast cancer cells (MCF-7, MDA-MB-468, HCC1954), colon cancer cells (SW620) and lung cancer cells (A549), together with human mammary epithelial primary cells (HMEC), were seeded (1000 to 4000 per 80 μl per well depending on the cell growth rate) into 96 well plates, 24 hours before compound overlay. Compounds were prepared as 10 mM stock solutions in 100% DMSO which were diluted with DMEM (Dulbecco's Modified Eagle's Medium) cell growth Medium (Invitrogen, Burlington, ON, Canada) containing 10% FBS (Fetal Bovine Serum) to concentrations ranging from 50 nM to 250 μM. Aliquots (20 μl) from each concentration were overlaid to 80 μl of the pre-seeded cells in the 96 well plates to make final concentrations of 10 nM to 50 μM. The cells were cultured for 5 days before the Sulforhodamine B assay (SRB) was performed to determine the compound's cell growth inhibition activity.
(§2) Sulforhodamine B (purchased from Sigma, Oakville, ON, Canada) is a water-soluble dye that binds to the basic amino acids of the cellular proteins. Thus, colorimetric measurement of the bound dye provides an estimate of the total protein mass that is related to the cell number. the cells are fixed in situ by gently aspirating off the culture media and adding 50 μl ice cold 10% Tri-chloroacetic Acid (TCA) per well and incubate at 4° C. for 30-60 min, The plates are washed with water five times and allowed to air dry for 5 min. Addition of 50 μl 0.4% (w/v) SRB solution in 1% (v/v) acetic acid to each well and incubatation for 30 min at RT completes the staining reaction. Following staining, plates are washed four times with 1% acetic acid to remove unbound dye and then allowed to air dry for 5 min. The stain is solubilized with 100 μl of 10 mM Tris pH10.5 per well. Absorbance is read at 570 nm.
(§3) The percentage (%) of relative growth inhibition was calculated by comparing to DMSO treated only cells (100%). GI50's were determined for compounds with cytotoxic activity. The GI50 was calculated using GraphPad PRISM software (GraphPad Software, Inc., San Diego, Calif., USA).

[2] = system: MCF-7 luminal breast cancer cell line; test: as above; assay type: cell-based; settings: Homo sapiens, MCF7, 120 h; 5 days culture, SRB; read-out: Cell Line GI50 Range, MCF-7
Experimental: as §1, §2, §3

A549 lung cancer cells = test: as above; assay type: cell-based; settings: Homo sapiens, A549, 120 h, 5 days culture, read-out: Cell Line GI50 Range, A-549
Experimental: as §1, §2, §3

SW620 colon cancer cells = test: as above; assay type: cell-based; settings: Homo sapiens, SW-620, 120 h, 5 days culture, read-out: Cell Line GI50 Range, SW-620
Experimental: as §1, §2, §3

[3] = system: HCC1954 basal breast cancer cell line; test: as above; assay type: cell-based; settings: Homo sapiens, HCC1954, 120 h, 5 days culture, read-out: Cell Line GI50 Range, HCC-1954
Experimental: as §1, §2, §3

Aurora B = molecular target: T3, Aurora B (Homo sapiens, UniProt Q96GD4); test: Aurora B Inhibition Assay (Z-Lyte); assay type: biochemical; settings: for IC50: 128 μM ATP, 28 nM Aurora B, read-out: Aurora B IC50 Ranges
T3 construct: purchased Invitrogen PV3970
T3 sequence (Q96GD4 whole entry): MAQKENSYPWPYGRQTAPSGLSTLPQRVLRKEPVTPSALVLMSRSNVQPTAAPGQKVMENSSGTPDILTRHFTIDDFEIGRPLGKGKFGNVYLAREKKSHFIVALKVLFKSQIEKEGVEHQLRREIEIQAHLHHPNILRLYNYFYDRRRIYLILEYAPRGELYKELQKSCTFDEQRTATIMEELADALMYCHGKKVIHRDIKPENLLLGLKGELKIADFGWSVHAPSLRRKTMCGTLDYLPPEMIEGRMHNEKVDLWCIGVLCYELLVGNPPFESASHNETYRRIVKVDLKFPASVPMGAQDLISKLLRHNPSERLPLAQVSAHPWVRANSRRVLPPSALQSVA
Experimental: (§4) Aurora B inhibition was determined using the Z-Lyte assay kit from Invitrogen. The assay was performed using the recommended manufacturer's instructions with 128 μM ATP and 28 nM Aurora B (Invitrogen cat #PV3970). The % inhibition values were determined according to the manufacturer's directions and IC50 values were obtained using a non-linear 4 point logistic curve fit (XLfit4, IDBS)

Aurora A = molecular target: T4, Aurora A (Homo sapiens, UniProt O14965); test: Aurora A Inhibition Assay (Z-Lyte); assay type: biochemical; settings: for inhibition at 10 µM: 10 μM compound, read-out: Aurora A relative inhibition percentage at a dose of 10 μM; for IC50: 20 μM ATP, 12 nM Aurora A, read-out: Aurora A IC50 Ranges
T4 construct: purchased Invitrogen PV3612
T4 sequence (O14965 1-403): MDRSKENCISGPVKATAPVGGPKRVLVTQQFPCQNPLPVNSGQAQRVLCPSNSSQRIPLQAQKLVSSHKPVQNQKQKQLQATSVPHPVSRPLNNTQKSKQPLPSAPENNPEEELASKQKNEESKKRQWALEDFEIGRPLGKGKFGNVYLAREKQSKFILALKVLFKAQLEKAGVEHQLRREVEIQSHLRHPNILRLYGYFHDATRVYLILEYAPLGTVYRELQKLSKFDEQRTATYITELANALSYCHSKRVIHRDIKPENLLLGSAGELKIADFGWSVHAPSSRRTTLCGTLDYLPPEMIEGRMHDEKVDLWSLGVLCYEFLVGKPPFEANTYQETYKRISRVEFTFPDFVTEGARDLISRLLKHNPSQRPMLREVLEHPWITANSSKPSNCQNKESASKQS
Experimental: as §4, with “Aurora A” for “Aurora B”, “with 20” for “with 128”, “and 12” for “and 28”, “cat #PV3612).” for “cat #PV3970).”

PLK2 = molecular target: T5, PLK2 (Homo sapiens, UniProt Q9NYY3); test: PLK2 Inhibition Assay (Z-Lyte); assay type: biochemical; settings: for inhibition at 10 µM: 10 μM compound, read-out: PLK2 relative inhibition percentage at a dose of 10 μM
T5 construct: purchased Invitrogen PV4204
T5 sequence (Q9NYY3 whole entry): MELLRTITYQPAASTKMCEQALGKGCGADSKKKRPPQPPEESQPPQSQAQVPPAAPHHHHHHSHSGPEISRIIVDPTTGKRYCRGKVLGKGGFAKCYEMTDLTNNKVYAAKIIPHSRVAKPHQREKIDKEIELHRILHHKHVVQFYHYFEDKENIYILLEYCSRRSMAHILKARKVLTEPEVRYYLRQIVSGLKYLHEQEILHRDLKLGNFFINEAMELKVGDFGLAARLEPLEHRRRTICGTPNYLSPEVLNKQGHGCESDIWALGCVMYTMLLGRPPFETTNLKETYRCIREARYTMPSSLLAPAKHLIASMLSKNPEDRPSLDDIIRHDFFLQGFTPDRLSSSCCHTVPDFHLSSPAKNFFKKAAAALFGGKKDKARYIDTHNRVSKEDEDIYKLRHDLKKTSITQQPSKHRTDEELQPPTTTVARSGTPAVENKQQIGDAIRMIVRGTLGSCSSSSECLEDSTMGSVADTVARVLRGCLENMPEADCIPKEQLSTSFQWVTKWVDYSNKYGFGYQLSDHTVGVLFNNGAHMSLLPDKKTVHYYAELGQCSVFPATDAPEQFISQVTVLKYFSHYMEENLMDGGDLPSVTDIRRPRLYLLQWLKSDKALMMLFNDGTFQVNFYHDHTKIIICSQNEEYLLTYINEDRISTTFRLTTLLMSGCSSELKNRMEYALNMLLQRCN
Experimental: as §4, with “PLK2” for “Aurora B”, “Invitrogen (cat #PV3802).” for “Invitrogen.”, “60” for “128”, “133” for “28”, “#PV4204).” for “#PV3970).”

[4] = 15 μM ATP, 4 nM GST-PLK4, read-out: PLK4 IC50 Ranges

IC50 (human PLK4; [4]) [µM]	IC50 (PLK1) [µM]	GI50 [1] [µM]	GI50 [2] [µM]	inhibition at 10 µM (PLK1) [%]	GI50 (A549 lung cancer cells) [µM]	GI50 (SW620 colon cancer cells) [µM]	GI50 [3] [µM]	IC50 (Aurora B) [µM]	inhibition at 10 µM (Aurora A) [%]	IC50 (PLK2; 60 μM ATP, 133 nM PLK2, read-out: PLK2 IC50 Ranges) [µM]	inhibition at 10 µM (Aurora B; 10 μM compound, read-out: Aurora B relative inhibition percentage at a dose of 10 μM) [%]	inhibition at 10 µM (PLK2) [%]	IC50 (Aurora A) [µM]	SMILES	IC50 (human PLK4) [µM]
< 5	< 5	20 to 50	20 to 50	–	–	–	–	–	–	–	–	–	–	CNC(=O)c1ccc2c(c1)NC(=O)C2=Cc1ccc2cn[nH]c2c1 (mixture of isomers) [Example A10, (E and Z)-(3-((1H-indazol-6-yl)methylene)-N-methyl-2-oxoindoline-6-carboxamide]	–
< 5	–	< 5	< 5	< 50	< 5	< 5	< 5	< 5	> 50	–	–	–	–	CN1CCN(c2ccc(-c3n[nH]c4cc(C=C5C(=O)Nc6ccccc65)ccc34)cn2)CC1 (mixture of isomers) [Example A96, (E and Z)-3-((3-(6-(4-methylpiperazin-1-yl)pyridin-3-yl)-1H-indazol-6-yl)methylene)indolin-2-one]	–
< 5	–	< 5	< 5	–	< 5	< 5	< 5	–	–	–	–	–	–	CN1CCN(c2ccc(-c3n[nH]c4cc(C=C5C(=O)Nc6ccc(Br)cc65)ccc34)cn2)CC1 (mixture of isomers) [Example A150, (E and Z)-5-bromo-3-((3-(6-(4-methylpiperazin-1-yl)pyridin-3-yl)-1H-indazol-6-yl)methylene)indolin-2-one]	–
5 to 50	5 to 50	5 to 20	5 to 20	–	–	–	–	–	–	–	–	–	–	O=C1Nc2cc(Cl)ccc2/C1=C\c1ccc2[nH]nnc2c1 [Example A4, (E)-3-((1H-benzo[d][1,2,3]triazol-5-yl)methylene)-6-chloroindolin-2-one]	–
5 to 50	5 to 50	< 5	5 to 20	–	–	–	–	–	–	–	–	–	–	O=C1Nc2ccccc2/C1=C\c1ccc2[nH]cnc2c1 [Example A19, (E)-3-((1H-benzo[d]imidazol-5-yl)methylene)indolin-2-one]	–
< 5	> 50	< 5	< 5	–	–	–	–	–	< 50	5 to 50	> 50	–	–	O=C1Nc2ccc(Br)cc2/C1=C\c1ccc2[nH]ncc2c1 [Example A31, (E)-3-((1H-indazol-5-yl)methylene)-5-bromoindolin-2-one]	–
< 5	5 to 50	5 to 20	5 to 20	–	–	–	–	< 5	> 50	–	–	< 50	–	O=C1Nc2ccc(F)cc2/C1=C/c1ccc2cn[nH]c2c1 [Example A32, (Z)-3-((1H-indazol-6-yl)methylene)-5-fluoroindolin-2-one]	–
< 5	–	–	–	< 50	–	–	–	< 5	–	–	–	< 50	< 5	O=C1Nc2ccccc2/C1=C\c1ccc2c(/C=C/c3cccnc3)n[nH]c2c1 [Example A113, (E)-3-((3-((E)-2-(pyridin-3-yl)vinyl)-1H-indazol-6-yl)methylene)-indolin-2-one]	–
< 5	–	–	–	< 50	–	–	–	< 5	–	–	–	< 50	< 5	COc1ccc2c(c1)/C(=C\c1ccc3c(/C=C/c4ccncc4Cl)n[nH]c3c1)C(=O)N2 [Example A119, (E)-3-((3-((E)-2-(3-chloropyridin-4-yl)vinyl)-1H-indazol-6-yl)methyl-ene)-5-methoxyindolin-2-one]	–
< 5	–	–	–	< 50	–	–	–	< 5	–	–	–	< 50	< 5	CC(=O)Nc1cccc2c1NC(=O)/C2=C/c1ccc2c(/C=C/c3ccncc3)n[nH]c2c1 [Example A120, N-((E)-2-oxo-3-((3-((E)-2-(pyridin-4-yl)vinyl)-1H-indazol-6-yl)-methylene)indolin-7-yl)acetamide]	–
< 5	–	5 to 20	20 to 50	–	> 50	20 to 50	> 50	–	–	–	–	–	–	O=C1Nc2ccccc2/C1=C\c1ccc2c(C#Cc3cccnc3)n[nH]c2c1 [Example A147, (E)-3-((3-(pyridin-3-ylethynyl)-1H-indazol-6-yl)methylene)indolin-2-one]	–

SMILES	IC50 (human PLK4; [4]) [µM]	IC50 (PLK1) [µM]	GI50 [1] [µM]	GI50 [2] [µM]	inhibition at 10 µM (PLK1) [%]	GI50 (A549 lung cancer cells) [µM]	GI50 (SW620 colon cancer cells) [µM]	GI50 [3] [µM]	IC50 (Aurora B) [µM]	inhibition at 10 µM (Aurora A) [%]	IC50 (PLK2; 60 μM ATP, 133 nM PLK2, read-out: PLK2 IC50 Ranges) [µM]	inhibition at 10 µM (Aurora B; 10 μM compound, read-out: Aurora B relative inhibition percentage at a dose of 10 μM) [%]	inhibition at 10 µM (PLK2) [%]	IC50 (Aurora A) [µM]	IC50 (human PLK4) [µM]
COc1ccc2c(c1)/C(=C\c1ccc3c(/C=C/c4cc[n+]([O-])cc4)n[nH]c3c1)C(=O)N2 [Example A117, 4-((E)-2-(6-((E)-(5-methoxy-2-oxoindolin-3-ylidene)methyl)-1H-indazol-3-yl)vinyl)pyridine 1-oxide]	–	–	–	–	< 50	–	–	–	< 5	–	–	–	< 50	< 5	< 5
